These results are taken from US20230357179A1, “RAF KINASE INHIBITORS AND METHODS OF USE THEREOF” (Deciphera Pharmaceuticals, LLC, priority 2021, published 2023).

For one experiment, the target named is T1, C-Raf kinase (Homo sapiens, UniProt P04049, Y340D/Y341D).
T1 construct: Y340D,; GST (N); purchased Sigma
As to the kind of experiment: Biochemical assay for C-Raf.1 (coupled pyruvate kinase/lactate dehydrogenase). The settings on record: read-out: CRAF.1 IC50. In a few lines: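 NADH depletion at 340 nm monitored continuously for 6 h at 30° C, with rates taken over 4–5 h. The coupled pyruvate kinase/lactate dehydrogenase reaction used 1 mM ATP, 30.1 nM MEK substrate and 0.43 nM kinase at pH 7.5. IC50 was fitted sigmoidally from percent inhibition of serially diluted compound.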

Another experiment concerns the target T2, A-Raf kinase (Homo sapiens, UniProt P10398, Y301D/Y302D).
T2 construct: purchased Sigma
Nature of the experiment: Biochemical assay for A-Raf.1 (coupled pyruvate kinase/lactate dehydrogenase). The settings on record: read-out: ARAF.1 IC50. The essentials:
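IC50 values came from four-parameter sigmoidal fits of percent inhibition, using rates over the 4 to 5 h window of continuous A340 readings (6 h, 30° C). The coupled PK/LDH system tracked NADH oxidation during 5.55 nM A-Raf activity on 30.1 nM MEK at 1 mM ATP, buffer pH 7.5.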

Another experiment deals with A375 cells. As to the kind of experiment: A375 cell proliferation assay (1), resazurin, 96-well. It counts as cell-based. The settings on record: Homo sapiens, A-375, inhibition of cell proliferation. The essentials: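 Viability was read by resazurin fluorescence at 540 nm excitation and 600 nm emission, using a 440 μM solution added for 5–6 h at the end of culture. IC50 came from the curve fit.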

A further experiment concerns the target T3, B-Raf kinase (Homo sapiens, UniProt P15056).
T3 construct: GST (N); purchased Sigma
As to the kind of experiment: Biochemical assay for B-Raf.1 (coupled pyruvate kinase/lactate dehydrogenase). The settings on record: read-out: BRAF.1 IC50. In a few lines: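 Reaction rates over the 4–5 h window of a continuous 6 h, 30 °C read were converted to percent inhibition and fitted for IC50. B-Raf (0.13 nM) phosphorylated 30.1 nM MEK with 1 mM ATP; ADP coupled via PK/LDH to NADH loss at 340 nm, 1% DMSO final.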

Bounds are passed on as bounds.

T1 sequence (P04049 307-648 Y340D/Y341D): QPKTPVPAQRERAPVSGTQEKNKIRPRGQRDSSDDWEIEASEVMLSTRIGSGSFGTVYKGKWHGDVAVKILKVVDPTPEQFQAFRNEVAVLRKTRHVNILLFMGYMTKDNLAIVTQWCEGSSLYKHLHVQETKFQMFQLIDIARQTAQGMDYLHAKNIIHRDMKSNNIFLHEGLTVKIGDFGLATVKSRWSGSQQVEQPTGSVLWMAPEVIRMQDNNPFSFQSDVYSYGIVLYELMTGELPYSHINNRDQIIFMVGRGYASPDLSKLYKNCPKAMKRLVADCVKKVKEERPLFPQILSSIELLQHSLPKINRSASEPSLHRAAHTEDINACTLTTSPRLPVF
T3 sequence (P15056 416-766): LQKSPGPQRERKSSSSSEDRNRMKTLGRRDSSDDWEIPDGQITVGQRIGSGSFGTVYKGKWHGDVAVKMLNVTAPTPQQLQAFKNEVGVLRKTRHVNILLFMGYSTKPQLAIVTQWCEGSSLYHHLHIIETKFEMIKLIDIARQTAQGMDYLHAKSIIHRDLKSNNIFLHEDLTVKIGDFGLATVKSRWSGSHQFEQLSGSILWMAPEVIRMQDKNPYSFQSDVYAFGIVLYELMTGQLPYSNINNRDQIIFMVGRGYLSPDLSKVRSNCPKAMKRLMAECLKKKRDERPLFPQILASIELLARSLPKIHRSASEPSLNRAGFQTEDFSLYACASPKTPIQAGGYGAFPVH
T2 sequence (P10398 with tags, fused parts or gaps Y301D/Y302D): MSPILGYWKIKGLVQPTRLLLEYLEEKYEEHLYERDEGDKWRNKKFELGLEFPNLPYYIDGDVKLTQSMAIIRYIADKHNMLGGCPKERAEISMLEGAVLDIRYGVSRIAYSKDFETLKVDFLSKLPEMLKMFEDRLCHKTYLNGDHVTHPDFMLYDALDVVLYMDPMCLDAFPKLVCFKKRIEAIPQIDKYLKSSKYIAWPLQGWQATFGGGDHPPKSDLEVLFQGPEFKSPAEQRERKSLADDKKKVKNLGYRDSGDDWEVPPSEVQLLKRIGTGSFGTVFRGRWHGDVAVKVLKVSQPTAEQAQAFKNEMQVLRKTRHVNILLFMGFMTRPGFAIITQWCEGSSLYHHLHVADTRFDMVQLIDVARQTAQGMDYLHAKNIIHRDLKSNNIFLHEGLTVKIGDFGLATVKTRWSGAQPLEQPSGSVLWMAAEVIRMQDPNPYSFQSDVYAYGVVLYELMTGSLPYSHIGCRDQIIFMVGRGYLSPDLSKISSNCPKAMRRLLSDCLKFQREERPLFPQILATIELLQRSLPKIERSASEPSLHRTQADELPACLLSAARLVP

Regarding `CNC(=O)c1cc(-c2cnnc(-c3cc(NC(=O)NCCC(C)(C)C)c(F)cc3C)c2)ccn1` [Example 119], the IC50 is 100 to 500 nM at C-Raf kinase, greater than 1000 nM on A-Raf kinase, 1000 to 10000 nM with A375 cells and 100 to 500 nM on B-Raf kinase.

Consider `Cc1cc(F)c(NC(=O)NCCC2(C)COC2)cc1-c1cc(OCCO)nc(-c2ccnc3[nH]ncc23)c1` [Example 110], for which the IC50 at C-Raf kinase is 100 to 500 nM; on A-Raf kinase it was greater than 1000 nM; in the experiment with A375 cells, 1000 to 10000 nM; on B-Raf kinase it was 100 to 500 nM.

Turning to `COC(=O)Nc1cc(-c2ccnc(-c3cc(NC(=O)NCCC(C)(C)OC)c(F)cc3C)n2)ccn1` [Example 171], the IC50 is no more than 100 nM on C-Raf kinase, greater than 1000 nM on A-Raf kinase, 1000 to 10000 nM in the experiment with A375 cells and no more than 100 nM on B-Raf kinase.

`COC(=O)Nc1cc(-c2cc(-c3cc(NC(=O)NCCC(C)(C)F)cnc3C)cc(OCCO)n2)ccn1` [Example 165]: the IC50 at C-Raf kinase was no more than 100 nM; on A-Raf kinase, greater than 1000 nM; in the experiment with A375 cells it was 1000 to 10000 nM; on B-Raf kinase, no more than 100 nM.

For `Cc1cc(F)c(NC(=O)NCCC(F)F)cc1-c1cc(OCCO)nc(-c2ccnc(NC(=O)C3CC3)c2)c1` [Example 105], the IC50 at C-Raf kinase was no more than 100 nM; on A-Raf kinase it was 100 to 500 nM; with A375 cells, 1000 to 10000 nM; on B-Raf kinase, no more than 100 nM.

On to `CNC(=O)c1cc(-c2cc(-c3cc(NC(=O)NCCC4(C)CC4)c(F)cc3C)cc(OCCO)n2)ccn1` [Example 164], for which the half-maximal inhibitory concentration (IC50) was no more than 100 nM on C-Raf kinase, greater than 1000 nM on A-Raf kinase, no more than 100 nM in the experiment on A375 cells and no more than 100 nM on B-Raf kinase.

In the case of `COC(=O)Nc1cc(-c2nc(OCCO)cc(-c3cc(NC(=O)NCCC(C)(C)F)c(F)cc3C)n2)ccn1` [Example 161], the IC50 at C-Raf kinase was no more than 100 nM; on A-Raf kinase, greater than 1000 nM; in the experiment with A375 cells, 100 to 500 nM; at B-Raf kinase, no more than 100 nM.

`Cc1ncc(NC(=O)NCCC(C)(C)F)cc1-c1nccc(-c2ccnc(NC(=O)C3CC3)c2)n1` [Example 130]: the IC50 is no more than 100 nM on C-Raf kinase, greater than 1000 nM on A-Raf kinase, 1000 to 10000 nM with A375 cells and 100 to 500 nM at B-Raf kinase.

Consider `Cc1ccc(NC(=O)Nc2cccc(C(F)(F)F)c2)cc1-c1cc(OCCO)nc(N2CCOCC2)c1` [Example 3, 1-(3-(2-(2-hydroxyethoxy)-6-morpholinopyridin-4-yl)-4-methylphenyl)-3-(3-(trifluoromethyl)phenyl)urea], for which the IC50 at C-Raf kinase is no more than 100 nM; at A-Raf kinase it was 100 to 500 nM; in the experiment with A375 cells, 500 to 1000 nM; on B-Raf kinase, no more than 100 nM.

For `Cc1cc(F)c(NC(=O)NCCC(C)(C)F)cc1-c1cc(OCCO)nc(-c2ccnc3[nH]ncc23)c1` [Example 94], the IC50 was no more than 100 nM at C-Raf kinase, greater than 1000 nM on A-Raf kinase, 500 to 1000 nM in the experiment on A375 cells and no more than 100 nM on B-Raf kinase.

Regarding `COC1(CCNC(=O)Nc2cc(-c3ccnc(-c4ccnc(NC(=O)C5CC5)c4)n3)c(C)cc2F)CC1` [Example 117], the IC50 was no more than 100 nM on C-Raf kinase, 100 to 500 nM at A-Raf kinase, 1000 to 10000 nM in the experiment on A375 cells and no more than 100 nM on B-Raf kinase.

With `Cc1ncc(NC(=O)NC[C@H](O)C(C)(C)C)cc1-c1ccnc(-c2ccnc(NC(=O)C3CC3)c2)c1` [Example 102], the IC50 was no more than 100 nM at C-Raf kinase, greater than 1000 nM on A-Raf kinase, 1000 to 10000 nM with A375 cells and no more than 100 nM on B-Raf kinase.

With `COC(C)(C)CCNC(=O)Nc1cnc(C)c(-c2cc(-c3ccnc(NC(=O)C4CC4)c3)cnn2)c1` [Example 121], the IC50 at C-Raf kinase is no more than 100 nM; at A-Raf kinase, greater than 1000 nM; with A375 cells, 1000 to 10000 nM; at B-Raf kinase it was 100 to 500 nM.

Regarding `CCC(C)CCNC(=O)Nc1cnc(C)c(-c2ccnc(-c3ccnc(NC(=O)C4CC4)c3)c2)c1` (centres unmarked) [Example 124], the IC50 was no more than 100 nM at C-Raf kinase, greater than 1000 nM at A-Raf kinase, 1000 to 10000 nM in the experiment with A375 cells and no more than 100 nM at B-Raf kinase.
